Legend:
[1] = target: T1, MET_M1250T (Homo sapiens, UniProt P08581, M1250T); experiment: Proqinase Kinase profiling; assay type: biochemical; details: read-out: % inhibition at 100nM
T1 construct: purchased DiscoverX

[2] = target: T2, TEK_R849W (Homo sapiens, UniProt Q02763, R849W); experiment: Proqinase Kinase profiling; assay type: biochemical; details: read-out: % inhibition at 100nM
T2 construct: purchased DiscoverX

[3] = target: T3, IRAK4 (Homo sapiens, UniProt Q9NWZ3); experiment: Proqinase Kinase profiling; assay type: biochemical; details: read-out: % inhibition at 100nM
T3 construct: purchased DiscoverX

[4] = target: T4, CSNK2A1 (Homo sapiens, UniProt P68400); experiment: Proqinase Kinase profiling; assay type: biochemical; details: read-out: % inhibition at 100nM
T4 construct: purchased DiscoverX

[5] = target: T5, NEK11 (Homo sapiens, UniProt Q8NG66); experiment: Proqinase Kinase profiling; assay type: biochemical; details: read-out: % inhibition at 100nM
T5 construct: purchased DiscoverX

[6] = target: T6, NUAK1 (Homo sapiens, UniProt O60285); experiment: Proqinase Kinase profiling; assay type: biochemical; details: read-out: % inhibition at 100nM
T6 construct: purchased DiscoverX

[7] = target: T7, CLK2 (Homo sapiens, UniProt P49760); experiment: Proqinase Kinase profiling; assay type: biochemical; details: read-out: % inhibition at 100nM
T7 construct: purchased DiscoverX

[8] = target: T8, CDK6_cyclinD1 (Homo sapiens, UniProt Q00534); experiment: Proqinase Kinase profiling; assay type: biochemical; details: read-out: % inhibition at 100nM
T8 construct: purchased DiscoverX

[9] = target: T9, DMPK (Homo sapiens, UniProt Q09013); experiment: Proqinase Kinase profiling; assay type: biochemical; details: read-out: % inhibition at 100nM
T9 construct: purchased DiscoverX

[10] = target: T10, PDGFRA_V561D (Homo sapiens, UniProt P16234, V561D); experiment: Proqinase Kinase profiling; assay type: biochemical; details: read-out: % inhibition at 100nM
T10 construct: purchased DiscoverX

[11] = target: T11, ABL1_M351T (Homo sapiens, UniProt P00519, M351T); experiment: Proqinase Kinase profiling; assay type: biochemical; details: read-out: % inhibition at 100nM
T11 construct: purchased DiscoverX

[12] = target: T12, DNAPK (Homo sapiens, UniProt P78527); experiment: Proqinase Kinase profiling; assay type: biochemical; details: read-out: % inhibition at 100nM
T12 construct: purchased DiscoverX

[13] = target: T13, PLK1 (Homo sapiens, UniProt P53350); experiment: Proqinase Kinase profiling; assay type: biochemical; details: read-out: % inhibition at 100nM
T13 construct: purchased DiscoverX

[14] = target: T14, NTRK2 (Homo sapiens, UniProt Q16620); experiment: Proqinase Kinase profiling; assay type: biochemical; details: read-out: % inhibition at 100nM
T14 construct: purchased DiscoverX

[15] = target: T15, EPHA3 (Homo sapiens, UniProt P29320); experiment: Proqinase Kinase profiling; assay type: biochemical; details: read-out: % inhibition at 100nM
T15 construct: purchased DiscoverX

[16] = target: T16, FGFR1_V561M (Homo sapiens, UniProt P11362, V561M); experiment: Proqinase Kinase profiling; assay type: biochemical; details: read-out: % inhibition at 100nM
T16 construct: purchased DiscoverX

[17] = target: T17, VRK1 (Homo sapiens, UniProt Q99986); experiment: Proqinase Kinase profiling; assay type: biochemical; details: read-out: % inhibition at 100nM
T17 construct: purchased DiscoverX

[18] = target: T18, PASK (Homo sapiens, UniProt Q96RG2); experiment: Proqinase Kinase profiling; assay type: biochemical; details: read-out: % inhibition at 100nM
T18 construct: purchased DiscoverX

[19] = target: T19, FGFR3_K650E (Homo sapiens, UniProt P22607, K650E); experiment: Proqinase Kinase profiling; assay type: biochemical; details: read-out: % inhibition at 100nM
T19 construct: purchased DiscoverX

[20] = target: T20, JAK3 (Homo sapiens, UniProt P52333); experiment: Proqinase Kinase profiling; assay type: biochemical; details: read-out: % inhibition at 100nM
T20 construct: purchased DiscoverX

[21] = system: FLT3_ITD; experiment: Proqinase Kinase profiling; assay type: biochemical
[22] = target: T21, FGFR3 (Homo sapiens, UniProt P22607); experiment: Proqinase Kinase profiling; assay type: biochemical; details: read-out: % inhibition at 100nM
T21 construct: purchased DiscoverX

[23] = target: T22, ACVRL1 (Homo sapiens, UniProt P37023); experiment: Proqinase Kinase profiling; assay type: biochemical; details: read-out: % inhibition at 100nM
T22 construct: purchased DiscoverX

[24] = target: T23, FGFR4 (Homo sapiens, UniProt P22455); experiment: Proqinase Kinase profiling; assay type: biochemical; details: read-out: % inhibition at 100nM
T23 construct: purchased DiscoverX

[25] = system: BMP-6-induced BRE-LUC reporter activity; experiment: BMP BRE-LUC reporter assay in KS483 cells; assay type: cell-based, mouse; details: BMP-6 50 ng/mL 16 hours
Procedure: Compounds were added for 16 hours at 0.5μM before luciferase activity was measured.
For luciferase reporter assays, cells were seeded in 24-well plates and transfected with DharmaFECT Duo (Fisher Scientific, Landsmeer, The Netherlands), following the recommendations of the manufacturer. 48 hours after transfection the cells were harvested and lysed. […] Each transfection mixture was equalized with empty vector when necessary and every experiment was performed in triplicate.

[26] = target: T24, NUAK2 (Homo sapiens, UniProt Q9H093); experiment: Proqinase Kinase profiling; assay type: biochemical; details: read-out: % inhibition at 100nM
T24 construct: purchased DiscoverX

[27] = target: T25, PDGFRA_D842V (Homo sapiens, UniProt P16234, D842V); experiment: Proqinase Kinase profiling; assay type: biochemical; details: read-out: % inhibition at 100nM
T25 construct: purchased DiscoverX

[28] = target: T26, RPS6KB2 (Homo sapiens, UniProt Q9UBS0); experiment: Proqinase Kinase profiling; assay type: biochemical; details: read-out: % inhibition at 100nM
T26 construct: purchased DiscoverX

[29] = target: T27, EGFR_L747-E749del_A750P (Homo sapiens, UniProt P00533, A750P/DEL747-749); experiment: Proqinase Kinase profiling; assay type: biochemical; details: read-out: % inhibition at 100nM
T27 construct: purchased DiscoverX

[30] = target: T28, MET_Y1230A (Homo sapiens, UniProt P08581, Y1230A); experiment: Proqinase Kinase profiling; assay type: biochemical; details: read-out: % inhibition at 100nM
T28 construct: purchased DiscoverX

[31] = target: T29, ALK_R1275Q (Homo sapiens, UniProt Q9UM73, R1275Q); experiment: Proqinase Kinase profiling; assay type: biochemical; details: read-out: % inhibition at 100nM
T29 construct: purchased DiscoverX

[32] = target: T30, CDK9_cyclinT1 (Homo sapiens, UniProt P50750); experiment: Proqinase Kinase profiling; assay type: biochemical; details: read-out: % inhibition at 100nM
T30 construct: purchased DiscoverX

[33] = target: T31, PIM1 (Homo sapiens, UniProt P11309); experiment: Proqinase Kinase profiling; assay type: biochemical; details: read-out: % inhibition at 100nM
T31 construct: purchased DiscoverX

[34] = target: T32, ALK_L1196M (Homo sapiens, UniProt Q9UM73, L1196M); experiment: Proqinase Kinase profiling; assay type: biochemical; details: read-out: % inhibition at 100nM
T32 construct: purchased DiscoverX

[35] = target: T33, EPHB1 (Homo sapiens, UniProt P54762); experiment: Proqinase Kinase profiling; assay type: biochemical; details: read-out: % inhibition at 100nM
T33 construct: purchased DiscoverX

[36] = target: T34, LRRK2 (Homo sapiens, UniProt Q5S007); experiment: Proqinase Kinase profiling; assay type: biochemical; details: read-out: % inhibition at 100nM
T34 construct: purchased DiscoverX

[37] = target: T35, CSNK1G3 (Homo sapiens, UniProt Q9Y6M4); experiment: Proqinase Kinase profiling; assay type: biochemical; details: read-out: % inhibition at 100nM
T35 construct: purchased DiscoverX

[38] = target: T36, MAPK13 (Homo sapiens, UniProt O15264); experiment: Proqinase Kinase profiling; assay type: biochemical; details: read-out: % inhibition at 100nM
T36 construct: purchased DiscoverX

[39] = target: T37, EPHA5 (Homo sapiens, UniProt P54756); experiment: Proqinase Kinase profiling; assay type: biochemical; details: read-out: % inhibition at 100nM
T37 construct: purchased DiscoverX

[40] = target: T38, PRKACA (Homo sapiens, UniProt P17612); experiment: Proqinase Kinase profiling; assay type: biochemical; details: read-out: % inhibition at 100nM
T38 construct: purchased DiscoverX

T1 sequence (P08581 25-1390 M1250T): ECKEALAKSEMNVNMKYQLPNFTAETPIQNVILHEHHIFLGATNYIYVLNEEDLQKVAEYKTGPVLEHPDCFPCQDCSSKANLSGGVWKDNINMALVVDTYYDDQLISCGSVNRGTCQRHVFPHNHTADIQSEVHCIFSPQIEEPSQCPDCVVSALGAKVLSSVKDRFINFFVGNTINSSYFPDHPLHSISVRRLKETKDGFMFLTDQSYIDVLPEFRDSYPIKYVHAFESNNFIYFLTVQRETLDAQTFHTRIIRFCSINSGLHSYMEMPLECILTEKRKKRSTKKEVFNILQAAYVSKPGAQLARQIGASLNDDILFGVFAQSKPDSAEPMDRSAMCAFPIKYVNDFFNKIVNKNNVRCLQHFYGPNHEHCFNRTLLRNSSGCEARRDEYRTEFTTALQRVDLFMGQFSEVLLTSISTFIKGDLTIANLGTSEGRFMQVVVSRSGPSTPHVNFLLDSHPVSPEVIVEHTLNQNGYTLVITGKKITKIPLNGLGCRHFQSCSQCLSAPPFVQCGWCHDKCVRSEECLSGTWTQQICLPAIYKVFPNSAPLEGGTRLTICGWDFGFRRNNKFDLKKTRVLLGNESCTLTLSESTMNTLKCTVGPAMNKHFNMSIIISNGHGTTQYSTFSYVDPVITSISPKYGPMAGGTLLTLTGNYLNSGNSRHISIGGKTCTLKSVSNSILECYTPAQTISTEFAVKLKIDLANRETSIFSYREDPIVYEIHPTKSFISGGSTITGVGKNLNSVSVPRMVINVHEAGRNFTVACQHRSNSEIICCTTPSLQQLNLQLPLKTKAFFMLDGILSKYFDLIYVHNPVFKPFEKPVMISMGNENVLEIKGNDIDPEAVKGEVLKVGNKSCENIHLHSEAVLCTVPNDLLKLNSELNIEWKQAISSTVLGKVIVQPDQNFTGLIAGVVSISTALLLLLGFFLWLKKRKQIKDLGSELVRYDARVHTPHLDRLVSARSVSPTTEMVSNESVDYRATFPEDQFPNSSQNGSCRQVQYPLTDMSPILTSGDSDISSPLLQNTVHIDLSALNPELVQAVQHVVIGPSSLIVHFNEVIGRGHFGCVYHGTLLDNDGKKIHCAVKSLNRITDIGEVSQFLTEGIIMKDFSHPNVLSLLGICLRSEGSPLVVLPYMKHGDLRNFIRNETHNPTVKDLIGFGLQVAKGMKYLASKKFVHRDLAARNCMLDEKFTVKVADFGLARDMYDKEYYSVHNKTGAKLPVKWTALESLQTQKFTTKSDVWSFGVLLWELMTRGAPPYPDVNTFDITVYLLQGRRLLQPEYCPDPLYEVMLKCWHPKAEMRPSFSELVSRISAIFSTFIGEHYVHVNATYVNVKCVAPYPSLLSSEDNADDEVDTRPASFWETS
T21 sequence (P22607 23-806): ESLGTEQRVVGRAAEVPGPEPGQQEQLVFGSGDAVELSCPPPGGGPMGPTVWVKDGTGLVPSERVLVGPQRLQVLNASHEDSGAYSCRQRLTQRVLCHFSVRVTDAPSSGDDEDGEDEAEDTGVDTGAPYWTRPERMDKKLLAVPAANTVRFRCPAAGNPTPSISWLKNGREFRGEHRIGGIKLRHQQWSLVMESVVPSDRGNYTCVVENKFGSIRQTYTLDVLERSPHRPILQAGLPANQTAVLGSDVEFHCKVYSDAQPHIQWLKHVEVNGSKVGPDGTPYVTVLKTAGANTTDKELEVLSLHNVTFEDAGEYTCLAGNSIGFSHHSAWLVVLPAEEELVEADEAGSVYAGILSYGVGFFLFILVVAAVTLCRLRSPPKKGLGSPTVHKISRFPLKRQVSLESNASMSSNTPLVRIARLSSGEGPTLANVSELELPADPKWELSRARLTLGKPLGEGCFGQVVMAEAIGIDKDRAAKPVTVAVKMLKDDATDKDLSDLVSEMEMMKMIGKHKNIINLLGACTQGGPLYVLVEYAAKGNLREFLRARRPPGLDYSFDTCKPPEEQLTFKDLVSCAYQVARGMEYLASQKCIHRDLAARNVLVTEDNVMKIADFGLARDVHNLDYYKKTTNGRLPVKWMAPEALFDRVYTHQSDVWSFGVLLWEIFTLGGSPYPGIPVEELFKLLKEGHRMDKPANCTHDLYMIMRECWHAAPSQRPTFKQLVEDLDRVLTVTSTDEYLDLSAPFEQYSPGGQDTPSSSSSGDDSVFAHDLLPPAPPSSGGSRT
T19 sequence (P22607 23-806 K650E): as the sequence (P22607 23-806) above, with K628E counted along it
T4 sequence (P68400 whole entry): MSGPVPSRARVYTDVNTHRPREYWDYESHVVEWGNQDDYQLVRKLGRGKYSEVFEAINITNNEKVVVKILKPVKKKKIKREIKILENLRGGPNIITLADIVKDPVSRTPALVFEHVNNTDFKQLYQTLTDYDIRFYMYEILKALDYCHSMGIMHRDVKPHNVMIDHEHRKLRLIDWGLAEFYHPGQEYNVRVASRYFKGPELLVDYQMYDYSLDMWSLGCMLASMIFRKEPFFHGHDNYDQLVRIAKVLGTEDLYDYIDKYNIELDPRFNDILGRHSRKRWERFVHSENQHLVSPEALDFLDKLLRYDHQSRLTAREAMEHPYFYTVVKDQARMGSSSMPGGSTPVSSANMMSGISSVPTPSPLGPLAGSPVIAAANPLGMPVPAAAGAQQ
T2 sequence (Q02763 23-1124 R849W): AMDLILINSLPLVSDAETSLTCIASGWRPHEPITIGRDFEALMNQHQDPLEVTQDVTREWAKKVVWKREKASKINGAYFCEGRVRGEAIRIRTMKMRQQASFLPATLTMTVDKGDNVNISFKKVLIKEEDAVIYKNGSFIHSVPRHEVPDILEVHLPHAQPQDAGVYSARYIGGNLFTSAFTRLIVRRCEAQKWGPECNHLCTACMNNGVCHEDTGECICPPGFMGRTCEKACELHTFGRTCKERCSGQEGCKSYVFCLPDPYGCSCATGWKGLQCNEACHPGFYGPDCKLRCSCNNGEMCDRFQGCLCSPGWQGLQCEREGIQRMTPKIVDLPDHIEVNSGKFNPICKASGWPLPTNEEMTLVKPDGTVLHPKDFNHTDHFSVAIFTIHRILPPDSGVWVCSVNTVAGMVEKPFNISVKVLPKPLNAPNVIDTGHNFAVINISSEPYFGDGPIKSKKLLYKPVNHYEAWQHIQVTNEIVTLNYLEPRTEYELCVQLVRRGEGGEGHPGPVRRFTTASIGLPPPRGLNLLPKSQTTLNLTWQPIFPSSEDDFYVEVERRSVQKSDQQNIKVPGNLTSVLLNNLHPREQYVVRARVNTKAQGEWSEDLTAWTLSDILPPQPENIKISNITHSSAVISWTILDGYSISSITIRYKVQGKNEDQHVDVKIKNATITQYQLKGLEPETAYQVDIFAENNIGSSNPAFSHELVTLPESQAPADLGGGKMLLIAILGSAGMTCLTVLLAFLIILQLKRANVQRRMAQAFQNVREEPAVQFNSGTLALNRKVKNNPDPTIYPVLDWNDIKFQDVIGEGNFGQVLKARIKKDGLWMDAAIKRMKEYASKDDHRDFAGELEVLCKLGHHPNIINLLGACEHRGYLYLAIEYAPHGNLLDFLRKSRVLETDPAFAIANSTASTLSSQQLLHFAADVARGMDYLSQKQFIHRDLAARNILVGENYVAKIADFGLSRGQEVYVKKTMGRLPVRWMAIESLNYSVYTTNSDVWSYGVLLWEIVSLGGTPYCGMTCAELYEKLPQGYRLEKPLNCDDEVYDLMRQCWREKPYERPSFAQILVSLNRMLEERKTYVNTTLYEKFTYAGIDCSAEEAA
T9 sequence (Q09013 whole entry): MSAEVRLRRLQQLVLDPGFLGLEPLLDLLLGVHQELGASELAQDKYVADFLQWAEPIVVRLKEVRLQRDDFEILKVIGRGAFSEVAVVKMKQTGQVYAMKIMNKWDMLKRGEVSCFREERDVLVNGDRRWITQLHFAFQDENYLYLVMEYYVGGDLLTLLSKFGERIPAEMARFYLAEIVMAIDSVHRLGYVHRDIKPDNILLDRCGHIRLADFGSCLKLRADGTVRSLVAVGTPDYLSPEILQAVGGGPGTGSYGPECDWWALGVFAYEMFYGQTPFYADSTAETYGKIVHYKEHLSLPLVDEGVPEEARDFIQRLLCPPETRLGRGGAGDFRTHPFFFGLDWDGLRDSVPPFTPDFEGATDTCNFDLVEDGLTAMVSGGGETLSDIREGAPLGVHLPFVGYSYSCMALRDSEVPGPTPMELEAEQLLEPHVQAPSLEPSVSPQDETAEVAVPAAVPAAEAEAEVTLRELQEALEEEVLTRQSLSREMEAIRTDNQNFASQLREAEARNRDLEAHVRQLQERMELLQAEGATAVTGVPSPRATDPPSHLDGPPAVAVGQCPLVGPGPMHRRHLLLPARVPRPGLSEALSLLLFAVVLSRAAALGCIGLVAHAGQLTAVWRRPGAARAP
T3 sequence (Q9NWZ3 whole entry): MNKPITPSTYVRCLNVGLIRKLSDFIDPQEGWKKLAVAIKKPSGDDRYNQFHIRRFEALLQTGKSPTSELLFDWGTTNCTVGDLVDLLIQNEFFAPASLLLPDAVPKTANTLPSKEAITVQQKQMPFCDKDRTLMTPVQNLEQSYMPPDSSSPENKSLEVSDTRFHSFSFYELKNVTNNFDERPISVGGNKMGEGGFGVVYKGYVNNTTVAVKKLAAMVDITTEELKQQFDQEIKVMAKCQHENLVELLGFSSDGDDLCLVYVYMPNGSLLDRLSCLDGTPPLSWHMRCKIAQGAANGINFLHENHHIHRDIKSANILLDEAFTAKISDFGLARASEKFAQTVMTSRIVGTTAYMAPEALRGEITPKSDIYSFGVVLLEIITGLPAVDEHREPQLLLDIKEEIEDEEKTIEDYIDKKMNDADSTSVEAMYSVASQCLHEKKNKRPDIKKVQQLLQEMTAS

Structure (SMILES): Clc1cc2cc(c1)-c1cnn3ccc(nc13)NCCOCCO2 [OD36]
- inhibition at 0.1 µM [1]: 12%
- inhibition at 0.1 µM [2]: 8%
- inhibition at 0.1 µM [3]: 13%
- inhibition at 0.1 µM [4]: -7%
- inhibition at 0.1 µM [5]: 4%
- inhibition at 0.1 µM [6]: 6%
- inhibition at 0.1 µM [7]: 10%
- inhibition at 0.1 µM [8]: -5%
- inhibition at 0.1 µM [9]: 2%
- inhibition at 0.1 µM [10]: -1%
- inhibition at 0.1 µM [11]: 16%
- inhibition at 0.1 µM [12]: 13%
- inhibition at 0.1 µM [13]: 7%
- inhibition at 0.1 µM [14]: 28%
- inhibition at 0.1 µM [15]: 12%
- inhibition at 0.1 µM [16]: 9%
- inhibition at 0.1 µM [17]: -4%
- inhibition at 0.1 µM [18]: 3%
- inhibition at 0.1 µM [19]: 8%
- inhibition at 0.1 µM [20]: 6%
- % inhibition at 100nM [21]: 36%
- inhibition at 0.1 µM [22]: 7%
- inhibition at 0.1 µM [23]: 88%
- inhibition at 0.1 µM [24]: 9%
- Inhibition of BMP-6-stimulated BRE-LUC reporter activity [25]: in the submicromolar range
- inhibition at 0.1 µM [26]: 9%
- inhibition at 0.1 µM [27]: 47%
- inhibition at 0.1 µM [28]: 11%
- inhibition at 0.1 µM [29]: 2%
- inhibition at 0.1 µM [30]: -3%
- inhibition at 0.1 µM [31]: 6%
- inhibition at 0.1 µM [32]: 17%
- inhibition at 0.1 µM [33]: 29%
- inhibition at 0.1 µM [34]: -7%
- inhibition at 0.1 µM [35]: -2%
- inhibition at 0.1 µM [36]: 53%
- inhibition at 0.1 µM [37]: 3%
- inhibition at 0.1 µM [38]: 15%
- inhibition at 0.1 µM [39]: 10%
- inhibition at 0.1 µM [40]: -3%

Structure (SMILES): Cc1cc2cc(c1)-c1cnn3ccc(nc13)NCCNC(=O)CCN(C)C2 [OD52]
- inhibition at 0.1 µM [1]: -19%
- inhibition at 0.1 µM [2]: -16%
- inhibition at 0.1 µM [3]: -2%
- inhibition at 0.1 µM [4]: 3%
- inhibition at 0.1 µM [5]: 4%
- inhibition at 0.1 µM [6]: -4%
- inhibition at 0.1 µM [7]: 1%
- inhibition at 0.1 µM [8]: 2%
- inhibition at 0.1 µM [9]: -5%
- inhibition at 0.1 µM [10]: 12%
- inhibition at 0.1 µM [11]: -7%
- inhibition at 0.1 µM [12]: 4%
- inhibition at 0.1 µM [13]: -1%
- inhibition at 0.1 µM [14]: 28%
- inhibition at 0.1 µM [15]: -20%
- inhibition at 0.1 µM [16]: -26%
- inhibition at 0.1 µM [17]: -15%
- inhibition at 0.1 µM [18]: 3%
- inhibition at 0.1 µM [19]: -7%
- inhibition at 0.1 µM [20]: -3%
- % inhibition at 100nM [21]: 19%
- inhibition at 0.1 µM [22]: -9%
- inhibition at 0.1 µM [23]: 89%
- inhibition at 0.1 µM [24]: -28%
- Inhibition of BMP-6-stimulated BRE-LUC reporter activity [25]: in the submicromolar range
- inhibition at 0.1 µM [26]: -7%
- inhibition at 0.1 µM [27]: 17%
- inhibition at 0.1 µM [28]: 4%
- inhibition at 0.1 µM [29]: -9%
- inhibition at 0.1 µM [30]: -1%
- inhibition at 0.1 µM [31]: -1%
- inhibition at 0.1 µM [32]: -3%
- inhibition at 0.1 µM [33]: -3%
- inhibition at 0.1 µM [34]: -6%
- inhibition at 0.1 µM [35]: -26%
- inhibition at 0.1 µM [36]: 10%
- inhibition at 0.1 µM [37]: 2%
- inhibition at 0.1 µM [38]: 3%
- inhibition at 0.1 µM [39]: -1%
- inhibition at 0.1 µM [40]: -7%

Source: article PMC6874179, “Development of Macrocycle Kinase Inhibitors for ALK2 Using Fibrodysplasia Ossificans Progressiva‐Derived Endothelial Cells” (JBMR Plus, 2019)
